Laboratory results published in patent US10047083B2, “Dihydropyrimidinoisoquinolinones and pharmaceutical compositions thereof for the treatment of inflammatory disorders” (GALAPAGOS NV, priority 2011, dated 2018).

These compounds were tested against T1, GPR84 (Homo sapiens, UniProt Q9NQS5) (assay: GTPγS binding assay (GPR84)). Conditions: membranes from stable cell line over expressing GPR84; 3,3′ di indolylmethane at EC80.
T1 construct: expressed in transfected cells; membranes used
Type: biochemical
Description: 1.1. Cell Based Assay: GTp-γS Binding Assay.
The following assay can be used for determination of GPR84 activation.
The assay is performed in a 96 well plate where the following reagents are added. […] In a last step, 30 μL of a mixture consisting of membranes-GTPγS-SpA beads is added [mixture consists of 20 μg/well membranes derived from stable cell line over expressing GPR84 (membranes are pre-incubated with 0.1 μM GDP for 15 min at 4° C.), 0.1 nM [^35S]GTPγS (Perkin Elmer, NEG030) and 0.5 mg/well PVT-WGA SpA beads (Perkin Elmer, RPNQ0001)]. All components are diluted in assay buffer containing 20 mM HEPES pH 7.4; 5 mM MgCl2; 250 mM NaCl; 0.05% BSA; 75 ug/mL saponin. Reactions are incubated for 90 min at room temperature followed by centrifugation at 2000 rpm during 15 min. Plates are read on a Topcount reader (Perkin Elmer) immediately after centrifugation (readout time, 1 min/well).

T1 sequence (Q9NQS5 whole entry): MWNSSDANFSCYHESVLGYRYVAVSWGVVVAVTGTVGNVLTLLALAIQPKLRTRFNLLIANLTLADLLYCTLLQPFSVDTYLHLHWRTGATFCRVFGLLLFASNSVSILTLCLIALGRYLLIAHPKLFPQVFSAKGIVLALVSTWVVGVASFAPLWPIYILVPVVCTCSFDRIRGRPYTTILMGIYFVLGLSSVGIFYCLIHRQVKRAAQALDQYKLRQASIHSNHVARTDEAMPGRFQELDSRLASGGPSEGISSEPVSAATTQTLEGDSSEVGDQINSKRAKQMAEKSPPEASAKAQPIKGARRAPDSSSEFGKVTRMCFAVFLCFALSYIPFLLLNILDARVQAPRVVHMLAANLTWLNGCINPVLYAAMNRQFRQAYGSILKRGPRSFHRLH

Structure (SMILES)	IC50
CN(c1ccc2c(c1)CCn1c-2cc(OC[C@@H]2COCCO2)nc1=O)C1CCCCC1 [Compound 152, 9-(cyclohexyl-methyl-amino)-2-((S)-1-[1,4]dioxan-2-ylmethoxy)-6,7-dihydro-pyrimido[6,1-a]isoquinolin-4-one]	501 to 1000 nM
O=c1nc(OC[C@@H]2COCCO2)cc2n1CCc1cc(COC3CCCCC3)ccc1-2 [Compound 137, 9-cyclohexyloxymethyl-2-((S)-1-[1,4]dioxan-2-ylmethoxy)-6,7-dihydro-pyrimido[6,1-a]isoquinolin-4-one]	0.01 to 100 nM
N#Cc1cccc(-c2ccc3c(c2)CCn2c-3cc(OCC3COCCO3)nc2=O)c1 (centres unmarked) [Compound 5, 3-[2-([1,4]dioxan-2-ylmethoxy)-4-oxo-6,7-dihydro-4H-pyrimido[6,1-a]isoquinolin-9-yl]-benzonitrile]	501 to 1000 nM
O=c1nc(OC[C@H]2COCCO2)cc2n1CCc1cc(OCc3noc(C4CC4)n3)ccc1-2 [Compound 104, 9-(5-cyclopropyl-[1,2,4]oxadiazol-3-ylmethoxy)-2-((R)-1-[1,4]dioxan-2-ylmethoxy)-6,7-dihydro-pyrimido[6,1-a]isoquinolin-4-one]	0.01 to 100 nM
CCOCCOCC#Cc1ccc2c(c1)CCn1c-2cc(OC[C@@H]2COCCO2)nc1=O [Compound 134, 2-((S)-1-[1,4]dioxan-2-ylmethoxy)-9-[3-(2-ethoxy-ethoxy)-prop-1-ynyl]-6,7-dihydro-pyrimido[6,1-a]isoquinolin-4-one]	101 to 500 nM
CCCCC(CC)CNc1ccc2c(c1)CCn1c-2cc(OC[C@@H]2COCCO2)nc1=O (stereo partly drawn) [Compound 128, 2-((S)-1-[1,4]dioxan-2-ylmethoxy)-9-(2-ethyl-hexylamino)-6,7-dihydro-pyrimido[6,1-a]isoquinolin-4-one]	101 to 500 nM
C#Cc1ccc2c(c1)CCn1c-2cc(OCC2COCCO2)nc1=O (centres unmarked) [Compound 105, 2-([1,4]dioxan-2-ylmethoxy)-9-ethynyl-6,7-dihydro-pyrimido[6,1-a]isoquinolin-4-one]	101 to 500 nM
O=c1nc(OC[C@@H]2COCCO2)cc2n1CCc1cc(COCC3CC3)ccc1-2 [Compound 138, 9-cyclopropylmethoxymethyl-2-((S)-1-[1,4]dioxan-2-ylmethoxy)-6,7-dihydro-pyrimido[6,1-a]isoquinolin-4-one]	0.01 to 100 nM
CC(C)(O)CCc1ccc2c(c1)CCn1c-2cc(OC[C@@H]2COCCO2)nc1=O [Compound 156, 2-((S)-1-[1,4]dioxan-2-ylmethoxy)-9-(3-hydroxy-3-methyl-butyl)-6,7-dihydro-pyrimido[6,1-a]isoquinolin-4-one]	101 to 500 nM
O=c1nc(OCC2COCCO2)cc2n1CCc1cc(C#CCNCc3cccnc3)ccc1-2 (centres unmarked) [Compound 120, 2-([1,4]dioxan-2-ylmethoxy)-9-{3-[(pyridin-3-ylmethyl)-amino]-prop-1-ynyl}-6,7-dihydro-pyrimido[6,1-a]isoquinolin-4-one]	101 to 500 nM
NC(=O)c1cc(-c2ccc3c(c2)CCn2c-3cc(OCC3COCCO3)nc2=O)ccc1F (centres unmarked) [Compound 28, 5-[2-([1,4]dioxan-2-ylmethoxy)-4-oxo-6,7-dihydro-4H-pyrimido[6,1-a]isoquinolin-9-yl]-2-fluoro-benzamide]	501 to 1000 nM
O=c1nc(OC[C@H]2COCCO2)cc2n1CCc1cc(OCCCC3CC3)ccc1-2 [Compound 164, 9-(3-cyclopropyl-propoxy)-2-((R)-1-[1,4]dioxan-2-ylmethoxy)-6,7-dihydropyrimido[6,1-a]isoquinolin-4-one]	0.01 to 100 nM
O=c1nc(OCC2COCCO2)cc2n1CCc1cc(C3=CCOCC3)ccc1-2 (centres unmarked) [Compound 58, 9-(3,6-dihydro-2H-pyran-4-yl)-2-([1,4]dioxan-2-ylmethoxy)-6,7-dihydro-pyrimido[6,1-a]isoquinolin-4-one]	101 to 500 nM
CC(C)(O)C#Cc1ccc2c(c1)CCn1c-2cc(OCC2COCCO2)nc1=O (centres unmarked) [Compound 55, 2-([1,4]dioxan-2-ylmethoxy)-9-(3-hydroxy-3-methyl-but-1-ynyl)-6,7-dihydro-pyrimido[6,6,1-a]isoquinolin-4-one]	> 1000 nM
O=c1nc(OCC2COCCO2)cc2n1CCc1cc(C#CCNCc3ccccc3)ccc1-2 (centres unmarked) [Compound 93, 9-(3-benzylamino-prop-1-ynyl)-2-([1,4]dioxan-2-ylmethoxy)-6,7-dihydro-pyrimido[6,1-a]isoquinolin-4-one]	0.01 to 100 nM
O=c1nc(OC[C@@H]2COCCO2)cc2n1CCc1cc(C#CCOCCF)ccc1-2 [Compound 135, 2-((S)-1-[1,4]dioxan-2-ylmethoxy)-9-[3-(2-fluoro-ethoxy)-prop-1-ynyl]-6,7-dihydro-pyrimido[6,1-a]isoquinolin-4-one]	101 to 500 nM
CC(O)C#Cc1ccc2c(c1)CCn1c-2cc(OCC2COCCO2)nc1=O (centres unmarked) [Compound 87, 2-([1,4]dioxan-2-ylmethoxy)-9-(3-hydroxy-but-1-ynyl)-6,7-dihydro-pyrimido[6,1-a]isoquinolin-4-one]	101 to 500 nM
O=c1nc(OCC2COCCO2)cc2n1CCc1cc(C#CCn3ccnc3)ccc1-2 (centres unmarked) [Compound 113, 2-([1,4]Dioxan-2-ylmethoxy)-9-(3-imidazol-1-yl-prop-1-ynyl)-6,7-dihydro-pyrimido[6,1-a]isoquinolin-4-one]	101 to 500 nM
CCOc1ccc(-c2ccc3c(c2)CCn2c-3cc(OCC3COCCO3)nc2=O)cn1 (centres unmarked) [Compound 61, 2-([1,4]dioxan-2-ylmethoxy)-9-(6-ethoxy-pyridin-3-yl)-6,7-dihydro-pyrimido[6,1-a]isoquinolin-4-one]	0.01 to 100 nM
COc1cccc(-c2ccc3c(c2)CCn2c-3cc(OCC3COCCO3)nc2=O)c1 (centres unmarked) [Compound 43, 2-([1,4]dioxan-2-ylmethoxy)-9-(3-methoxy-phenyl)-6,7-dihydro-pyrimido[6,1-a]isoquinolin-4-one]	101 to 500 nM
C=CCOc1ccc2c(c1)CCn1c-2cc(OCC2COCCO2)nc1=O (centres unmarked) [Compound 1, 9-allyloxy-2-(-1-[1,4]dioxan-2-ylmethoxy)-6,7-dihydro-pyrimido[6,1-a]isoquinolin-4-one]	101 to 500 nM
CCCCC#Cc1ccc2c(c1)CCn1c-2cc(OCC2COCCO2)nc1=O (centres unmarked) [Compound 84, 2-([1,4]dioxan-2-ylmethoxy)-9-hex-1-ynyl-6,7-dihydro-pyrimido[6,1-a]isoquinolin-4-one]	0.01 to 100 nM
COC(C)CCc1ccc2c(c1)CCn1c-2cc(OC[C@@H]2COCCO2)nc1=O (stereo partly drawn) [Compound 148, 2-((S)-1-[1,4]dioxan-2-ylmethoxy)-9-(3-methoxy-butyl)-6,7-dihydro-pyrimido[6,1-a]isoquinolin-4-one]	0.01 to 100 nM
O=c1nc(OCC2COCCO2)cc2n1CCc1cc(C#Cc3ncccn3)ccc1-2 (centres unmarked) [Compound 106, 2-([1,4]dioxan-2-ylmethoxy)-9-pyrimidin-2-ylethynyl-6,7-dihydro-pyrimido[6,1-a]isoquinolin-4-one]	501 to 1000 nM
O=c1nc(OC[C@@H]2COCCO2)cc2n1CCc1cc(OCCF)ccc1-2 [Compound 132, 2-((S)-1-[1,4]dioxan-2-ylmethoxy)-9-(2-fluoro-ethoxy)-6,7-dihydro-pyrimido[6,1-a]isoquinolin-4-one]	501 to 1000 nM
COc1nccc(-c2ccc3c(c2)CCn2c-3cc(OCC3COCCO3)nc2=O)c1Cl (centres unmarked) [Compound 64, 9-(3-chloro-2-methoxy-pyridin-4-yl)-2-([1,4]dioxan-2-ylmethoxy)-6,7-dihydro-pyrimido[6,1-a]isoquinolin-4-one]	101 to 500 nM
